Results reported in patent US3963711A, “Cyanomethyl sulfinyl- and sulfonyl-acetamido cephalosporins” (SmithKline Corporation, priority 1975, dated 1976).
≈ marks a conversion by molar mass, not a printed value.

Columns and labels:
Format in all cases: cell-based
[1] = system: Entero. aerogenes ATCC 13048; assay: MIC by standard agar inclusion method, Entero. aerogenes ATCC 13048; settings: Klebsiella aerogenes, ATCC13048
E. Coli SK 12140 = assay: MIC by standard agar inclusion method, E. Coli SK 12140; settings: Escherichia coli
S. aureus SK 23390 = assay: MIC by standard agar inclusion method, S. aureus SK 23390; settings: Staphylococcus aureus, SK23390
S. aureus Villaluz = assay: MIC by standard agar inclusion method, S. aureus Villaluz; settings: Staphylococcus aureus
Strep. faecalis HH 34358 = assay: MIC by standard agar inclusion method, Strep. faecalis HH 34358; settings: Enterococcus faecalis, HH34358
Kleb. pneumo. SK 4200 = assay: MIC by standard agar inclusion method, Kleb. pneumo. SK 4200
Pseudo. aeruginosa HH63 = assay: MIC by standard agar inclusion method, Pseudo. aeruginosa HH63; settings: Pseudomonas aeruginosa
[2] = system: Serratia marc. ATCC 13880; assay: MIC by standard agar inclusion method, Serratia marc. ATCC 13880; settings: ATCC13880
Kleb. pneumo. SK 1200 = assay: MIC by standard agar inclusion method, Kleb. pneumo. SK 1200
Shigella paradysentiae = assay: MIC by standard agar inclusion method, Shigella paradysentiae
Salmonella ATCC 12176 = assay: MIC by standard agar inclusion method, Salmonella ATCC 12176; settings: ATCC12176
S. aureus HH 127 = assay: MIC by standard agar inclusion method, S. aureus HH 127; settings: Staphylococcus aureus, HH127
E. Coli HH 33779 = assay: MIC by standard agar inclusion method, E. Coli HH 33779; settings: Escherichia coli

Row | SMILES | MIC [1] [µg/mL] | MIC (E. Coli SK 12140) [µg/mL] | MIC (S. aureus SK 23390) [µg/mL] | MIC (S. aureus Villaluz) [µg/mL] | MIC (Strep. faecalis HH 34358) [µg/mL] | MIC (Kleb. pneumo. SK 4200) [µg/mL] | MIC (Pseudo. aeruginosa HH63) [µg/mL] | MIC [2] [µg/mL] | MIC (Kleb. pneumo. SK 1200) [µg/mL] | MIC (Shigella paradysentiae) [µg/mL] | MIC (Salmonella ATCC 12176) [µg/mL] | MIC (S. aureus HH 127) [µg/mL] | MIC (E. Coli HH 33779) [µg/mL]
1 | Cc1nnc(SCC2=C(C(=O)O)N3C(=O)C(NC(=O)CS(=O)(=O)CC#N)[C@H]3SC2)s1 (stereo partly drawn) [Compound 09346, 7-Cyanomethylsulfonylacetamido-3-(5-methyl-1,3,4-thiadiazol-2-ylthiomethyl)-3-cephem-4-carboxylic acid] | 12.5 (≈ 25.5 µM) | 3.1 (≈ 6.33 µM) | 1.6 (≈ 3.27 µM) | 100 (≈ 204 µM) | 25 (≈ 51.1 µM) | 6.3 (≈ 12.9 µM) | > 200 | > 200 | 3.1 (≈ 6.33 µM) | 3.1 (≈ 6.33 µM) | 6.3 (≈ 12.9 µM) | 1.6 (≈ 3.27 µM) | 6.3 (≈ 12.9 µM)
2 | Cn1nnnc1SCC1=C(C(=O)O)N2C(=O)C(NC(=O)CSCC#N)[C@H]2SC1 (stereo partly drawn) [Compound 94436, 7-Cyanomethylmercaptoacetamido-3-(1-methyltetrazol-5-ylthiomethyl)-3-cephem-4-carboxylic acid] | 12.5 (≈ 28.3 µM) | 0.8 (≈ 1.81 µM) | 0.4 (≈ 0.906 µM) | 12.5 (≈ 28.3 µM) | 50 (≈ 113 µM) | 1.6 (≈ 3.62 µM) | > 200 | > 200 | 1.6 (≈ 3.62 µM) | 0.8 (≈ 1.81 µM) | 0.4 (≈ 0.906 µM) | 0.4 (≈ 0.906 µM) | 1.6 (≈ 3.62 µM)
3 | Cc1nnc(SCC2=C(C(=O)O)N3C(=O)C(NC(=O)CSCC#N)[C@H]3SC2)s1 (stereo partly drawn) [Compound 21436, 7-Cyanomethylmercaptoacetamido-3-(5-methyl-1,3,4-thiadiazol-2-ylthiomethyl)-3-cephem-4-carboxylic acid] | > 200 | 1.6 (≈ 3.5 µM) | 0.1 (≈ 0.219 µM) | 25 (≈ 54.6 µM) | 6.3 (≈ 13.8 µM) | 1.6 (≈ 3.5 µM) | > 200 | > 200 | 0.8 (≈ 1.75 µM) | 1.6 (≈ 3.5 µM) | 1.6 (≈ 3.5 µM) | 0.2 (≈ 0.437 µM) | 6.3 (≈ 13.8 µM)
4 | CC(=O)OCC1=C(C(=O)O)N2C(=O)C(NC(=O)CS(=O)(=O)CC#N)C2SC1 (stereo not drawn) [Compound 90246, 7-cyanomethylsulfonylacetamidocephalosporanic acid] | 50 (≈ 120 µM) | 6.3 (≈ 15.1 µM) | 1.6 (≈ 3.83 µM) | 25 (≈ 59.9 µM) | 50 (≈ 120 µM) | 25 (≈ 59.9 µM) | > 200 | > 200 | 6.3 (≈ 15.1 µM) | 6.3 (≈ 15.1 µM) | 3.1 (≈ 7.43 µM) | 1.6 (≈ 3.83 µM) | 25 (≈ 59.9 µM)
5 | Cn1nnnc1SCC1=C(C(=O)O)N2C(=O)C(NC(=O)CS(=O)(=O)CC#N)[C@H]2SC1 (stereo partly drawn) [Compound 72346, 7-Cyanomethylsulfonylacetamido-3-(1-methyltetrazol-5-ylthiomethyl)-3-cephem-4-carboxylic acid] | 6.3 (≈ 13.3 µM) | 1.6 (≈ 3.38 µM) | 1.6 (≈ 3.38 µM) | 25 (≈ 52.8 µM) | 50 (≈ 106 µM) | 1.6 (≈ 3.38 µM) | > 200 | > 200 | 1.6 (≈ 3.38 µM) | 1.6 (≈ 3.38 µM) | 1.6 (≈ 3.38 µM) | 1.6 (≈ 3.38 µM) | 3.1 (≈ 6.55 µM)
6 | CC(=O)OCC1=C(C(=O)O)N2C(=O)C(NC(=O)CSCC#N)C2SC1 (stereo not drawn) [Compound 79336, 7-Cyanomethylmercaptoacetamidocephalosporanic acid] | > 200 | 6.3 (≈ 16.3 µM) | 0.8 (≈ 2.08 µM) | 25 (≈ 64.9 µM) | 12.5 (≈ 32.4 µM) | 1.6 (≈ 4.15 µM) | > 200 | > 200 | 6.3 (≈ 16.3 µM) | 6.3 (≈ 16.3 µM) | 1.6 (≈ 4.15 µM) | 0.2 (≈ 0.519 µM) | 12.5 (≈ 32.4 µM)
